Reference: patent publication US20060020029A1, “Pharmaceutical compositions from ethnobotanicals” (priority 2004, published 2006)
≈ marks a conversion by molar mass, not a printed value. Where “and” joins values, the source holds several entries; their conditions need not be identical. Equal entries are not always repeated.

Columns and labels:
[1] = Stability in methanol (HPLC); assay type: physicochemical
Description: The stability of 3,5 Dicaffeoyl-Quinic Acid (3,5-DCQA) was first evaluated in methanol. 3.8 mg 3,5-DCQA was dissolved in 0.2375 ml MeOH (conc.=16 mg/ml), and then diluted as ½, ¼ and ⅛ dilution, respectively. All samples were subjected to HPLC in 0 Day, 1 Day, 2 Day and 4 Day, and the Area% of 3,5-DCQA was calculated.

[2] = test system: Herpes simplex virus type 1 (MacIntyre strain); assay: CPE assay, HSV-1 specificity; assay type: cell-based
Description: (§1) To determine whether the fractions are specific RSV inhibitors rather than general antiviral agents, the inventors tested them against influenza type A/Shangdong/09/93 (H3N2), herpes simplex type 1 (MacItyre), and herpes simplex type 2 (MS) using the CPE assay system.
(§2) CJ4-16-4 was tested using influenza type A, herpes simplex virus type 1, and herpes simplex virus type 2 using the CPE assay with MDCK or Vero cells.

[3] = test system: RSV-Long (Cotton Rat adapted strain); assay: CPE assay, RSV-Long cotton rat adapted strain; assay type: cell-based, respiratory syncytial virus
RSV (Long strain) = assay: CPE assay, RSV-Long in Hep-2 cells; assay type: cell-based, respiratory syncytial virus; details: Hep-2 cells, CPE assay; for EC50: μM using the estimated FW-516
RSV B = assay: CPE assay, RSV-B in Hep-2 cells; assay type: cell-based, respiratory syncytial virus
RSV-Long = assay: Time of addition, CPE assay; assay type: cell-based, respiratory syncytial virus; details: for EC50, time of addition: Hep-2; for EC50: estimated FW-516
Description: Determine the Time of Addition for EB Fractions. […] This activity is related to the life cycle of the virus and the step in the cycle where the compounds act. In this example, experiments were performed to investigate the effect of the time of addition of EB fractionated products on anti-RSV activity.
Mechanism of action studies were performed as follows. Mechanism of action studies were performed using CJ4-16-4 in a CPE assay with Hep-2 cells.

[4] = Stability in increasing concentrations of water (HPLC); assay type: physicochemical; details: for Area % of 3,5-DCQA (HPLC): Table 24 (in H2O)
Description: The rate of degradation of 3,5-DCQA was again tested in increasing concentrations of water. 5.4 mg 3,5-DCQA was dissolved in 0.266ml DMSO (conc.=20.3 mg/ml), and then diluted with water to ½, ¼ and ⅛ dilution, respectively. All samples were subjected on HPLC in 0 Day, 1 Day, 2 Day and 4 Day, and Area % of 3,5-DCQA was calculated.

[5] = test system: Influenza A-Shangdong/09/93 (H3N2); assay: CPE assay, influenza A specificity; assay type: cell-based, influenza type A
Description: as §1, §2

[6] = test system: Herpes simplex virus type 2 (MS-strain); assay: CPE assay, HSV-2 specificity; assay type: cell-based
Description: as §1, §2

MDCK cells = assay: Cytotoxicity in MDCK cells
RSV A2 = assay: Cotton rat RSV infection model, pulmonary titer; details: for RSV Pulmonary Titer Mean ± SD / RSV Pulmonary Titer in individual CR (A-D): harvest day 4
Description: All groups consisted of four randomly selected cotton rats. All test materials were administered intraperitoneally with once daily dosing. The placebo group was administered distilled water at volumes and schedules identical to the other groups receiving investigational test articles. In general, timing of administration of ribavarin to the ribavarin-treated group paralleled that of the other treatment groups except that initiation of dosing was on Day 1 for Experiments 1 and 2 and Day 0 for Experiment 3. The dose of ribavarin was 90 mg/kg/day in Experiments 1 and 3 and 180 mg/kg/day in Experiment 2. All animals were inoculated intranasally with approximately 100 median cotton rat infectious doses (CRID50) of RSV A2 on Day 0. Experiments were terminated on either Day 3 or 4 post-infection. […] On the day that the experiment was terminated, all CRs were sacrificed using CO2 to asphyxiate the animals. The lungs from the animals were subsequently removed. The lungs of sacrificed animals were removed, rinsed in sterile phosphate-buffered saline (PBS; pH 7.2) and weighed. Each set of lungs was then transpleurally lavaged using 3 ml of 2% FCS-MEM media. The resulting lung fractions were kept on ice until they were assayed for RSV. The lung fractions of animals from each group were tested for the levels of RSV present.

RSV-A2 = assay: CPE assay, RSV-A2 in Hep-2 cells
Description: (§3) The cell line was propagated in MEM supplemented with 10% heat-inactivated fetal bovine serum (FBS) containing 100 μg/ml of antibiotics (streptomycin/penicillin). […] The overnight medium (MEM containing 10% FBS) was removed, and wells were rinsed twice with 1× phosphate buffer saline (PBS, 200 μl) before adding 10×TCID50 of RSV suspension in fresh medium (MEM plus 2% FBS) to each well, except for cell only wells. […] CellTiter 96 Aqueous Non-Radioactive Cell Proliferation Assay (Promega) was used to monitor the antiviral activity following the manufacturer's instruction. After incubation, the cells were rinsed twice with 200 μl of 1×PBS prior to the addition of 100 μl of fresh medium (MEM plus 10% FBS). […] The extent of cell viability was measured at 490 nm using an ELISA reader, and the absorbance was used to calculate percent inhibition. Antiviral activity of each EB fraction or ribavirin is expressed as IC50, which represents the concentration of the test substance required to reduce the virus infection (as measured by the destruction of the host cells) by 50%.
(§4) Hep-2 cells were used in the CPE assay to determine anti-RSV properties.

RSV-A6 57754 = assay: CPE assay, RSV-A6 57754 in Hep-2 cells
Description: as §3, §4

[7] = CPE assay with MDCK or Vero cells
[8] = 12.5 mg/kg/day B.I.D i.p. D0-D3, 50% DMSO
[9] = 25 mg/kg/day B.I.D i.p. D0-D3, 50% DMSO

O=C(/C=C/c1ccc(O)c(O)c1)OC1CC(O)(C(=O)O)CC(OC(=O)/C=C/c2ccc(O)c(O)c2)C1O (centres unmarked) [CJ4-16-4, 3,5-di-O-caffeoylquinic acid]
Area % of 3,5-DCQA (HPLC) ([1]; Stock (16 mg/ml), 0 Day): 97.40 Area% | Area % of 3,5-DCQA (HPLC) ([1]; Stock (16 mg/ml), 1 Day): 97.16 Area% | Area % of 3,5-DCQA (HPLC) ([1]; Stock (16 mg/ml), 2 Day): 96.42 Area% | Area % of 3,5-DCQA (HPLC) ([1]; Stock (16 mg/ml), 4 Day): 95.39 Area% | Area % of 3,5-DCQA (HPLC) ([1]; ¼ dilution, 2 Day): 96.65 Area% | Area % of 3,5-DCQA (HPLC) ([1]; ¼ dilution, 4 Day): 95.88 Area% | Area % of 3,5-DCQA (HPLC) ([1]; ½ dilution, 2 Day): 97.03 Area% | Area % of 3,5-DCQA (HPLC) ([1]; ½ dilution, 4 Day): 95.66 Area% | Area % of 3,5-DCQA (HPLC) ([1]; ⅛ dilution, 0 Day): 97.32 Area% | Area % of 3,5-DCQA (HPLC) ([1]; ⅛ dilution, 1 Day): 96.84 Area% | Area % of 3,5-DCQA (HPLC) ([1]; ⅛ dilution, 2 Day): 94.44 Area% | Area % of 3,5-DCQA (HPLC) ([1]; ⅛ dilution, 4 Day): 94.27 Area% | activity against HSV-1 (in words) [2]: inactive | EC50, Herpes simplex virus type 1 (MacIntyre strain) [2, 7]: > 50 µg/mL | EC50 ([2]; μM using the estimated FW-516): > 100 µM | EC50, RSV-Long (Cotton Rat adapted strain) ([3]; Hep-2 cells, CPE assay): 1.4 µg/mL (≈ 2.71 µM) | EC50 ([3]; μM using the estimated FW-516): 2.7 µM | EC50, RSV-Long (RSV (Long strain)): 0.035 µg/mL (≈ 0.0678 µM) | EC50 (RSV (Long strain)): 0.068 µM | EC50 (RSV (Long strain); listed as 3,5 dicaffeoyl-quinic acid): ~0.068 µM | EC50 (RSV (Long strain); listed as IV): 0.068 µM | EC50, RSV-B (Washington) (RSV B; Hep-2 cells, CPE assay): 0.086 µg/mL (≈ 0.167 µM) | EC50 (RSV B; μM using the estimated FW-516, read-out: EC50, RSV-B (Washington)): 0.167 µM | EC50, time of addition (RSV-Long; 0-Hr-Post-infection): 0.051 µg/mL | EC50 (RSV-Long; 0-Hr-Post-infection): 99 nM | EC50, time of addition (RSV-Long; 2-Hr-Post-infection): 0.036 µg/mL | EC50 (RSV-Long; 2-Hr-Post-infection): 70 nM | EC50, time of addition (RSV-Long; 4-Hr-Post-infection): 0.039 µg/mL | EC50 (RSV-Long; 4-Hr-Post-infection): 76 nM | EC50, time of addition (RSV-Long; 6-Hr-Post-infection): 0.043 µg/mL | EC50 (RSV-Long; 6-Hr-Post-infection): 83 nM | EC50, time of addition (RSV-Long; 8-Hr-Post-infection): 0.039 µg/mL | EC50 (RSV-Long; 8-Hr-Post-infection): 76 nM | EC50, time of addition (RSV-Long; 24-Hr-Post-infection): 0.069 µg/mL | EC50 (RSV-Long; 24-Hr-Post-infection): 130 nM | Area % of 3,5-DCQA (HPLC) ([4]; Stock (20.3 mg/ml), 0 Day): 97.05 Area % | Area % of 3,5-DCQA (HPLC) ([4]; Stock (20.3 mg/ml), 1 Day): 96.09 Area % | Area % of 3,5-DCQA (HPLC) ([4]; Stock (20.3 mg/ml), 2 Day): 93.94 Area % | Area % of 3,5-DCQA (HPLC) ([4]; Stock (20.3 mg/ml), 4 Day): 91.90 Area % | Area % of 3,5-DCQA (HPLC) ([4]; ¼ dilution with water, 1 Day): 92.79 Area % | Area % of 3,5-DCQA (HPLC) ([4]; ¼ dilution with water, 2 Day): 91.06 Area % | Area % of 3,5-DCQA (HPLC) ([4]; ¼ dilution with water, 4 Day): 88.14 Area % | Area % of 3,5-DCQA (HPLC) ([4]; ½ dilution with water, 1 Day): 94.62 Area % | Area % of 3,5-DCQA (HPLC) ([4]; ½ dilution with water, 2 Day): 92.71 Area % | Area % of 3,5-DCQA (HPLC) ([4]; ½ dilution with water, 4 Day): 90.20 Area % | Area % of 3,5-DCQA (HPLC) ([4]; ⅛ dilution with water, 0 Day): 96.91 Area % | Area % of 3,5-DCQA (HPLC) ([4]; ⅛ dilution with water, 1 Day): 92.60 Area % | Area % of 3,5-DCQA (HPLC) ([4]; ⅛ dilution with water, 2 Day): 89.02 Area % | Area % of 3,5-DCQA (HPLC) ([4]; ⅛ dilution with water, 4 Day): 85.55 Area % | 3,5-DCQA changed into 4,5-DCQA ([4]; fourth day in solution): over 11% | activity against Influenza A (in words) [5]: inactive | EC50, Influenza A-Shangdong/09/93 (H3N2) [5, 7]: > 50 µg/mL | EC50 ([5]; μM using the estimated FW-516): > 100 µM | CC50 (Hep-2 cells): > 400000 nM | CC50, Hep 2 (Hep-2 cells): > 200 µg/mL | cytotoxicity in Hep-2 cells (in words) (Hep-2 cells): no significant cytotoxicity | activity against HSV-2 (in words) [6]: inactive | EC50, Herpes simplex virus type 2 (MS-strain) [6, 7]: > 50 µg/mL | EC50 ([6]; μM using the estimated FW-516): > 100 µM | CC50 (Vero cells): > 400000 nM | CC50, Vero (Vero cells): > 200 µg/mL | CC50, MDCK (MDCK cells; isolated compounds): > 200 µg/mL | CC50 (MDCK cells; read-out: CC50, MDCK, μM using the estimated FW-516): > 400 µM | inhibition of RSV infection in cotton rat model (RSV A2; 12.5 mg/kg/day): over one log | RSV Pulmonary Titer Mean ± SD (RSV A2; [8]): 3.3 ± 0.0 log10/g lung | RSV Pulmonary Titer in individual CR (A-D) (RSV A2; [8]): 3.3 log10/g lung | Reduction (RSV A2; 12.5 mg/kg/day B.I.D i.p. D0-D3, vs placebo): 1.1 Log 10 | RSV Pulmonary Titer Mean ± SD (RSV A2; [9]): 3.2 ± 0.3 log10/g lung | RSV Pulmonary Titer in individual CR (A-D) (RSV A2; [9]): 2.8 log10/g lung and 3.3 log10/g lung (3×) | Reduction (RSV A2; 25 mg/kg/day B.I.D i.p. D0-D3, vs placebo): 1.2 Log 10 | EC50, RSV-A2 (RSV-A2; Hep-2 cells, CPE assay): 0.084 µg/mL (≈ 0.163 µM) | EC50 (RSV-A2; read-out: EC50, RSV-A2, μM using the estimated FW-516): 0.163 µM | EC50, RSV-A6 57754 (RSV-A6 57754; Hep-2 cells, CPE assay): 0.08 µg/mL (≈ 0.155 µM) | EC50 (RSV-A6 57754; read-out: EC50, RSV-A6 57754, μM using the estimated FW-516): 0.16 µM
